Source: PubChem BioAssay AID248 (DTP/NCI, 2004)
Inconclusive results and toxic doses are left out. Peptide text beside a SMILES is read from it. * marks the point of attachment. Cbz = O=C(OCc1ccccc1)*; Bn = c1ccc(C*)cc1

Test system: L1210 leukemia ip in BDF1 mice, survival T/C
Test: NCI In Vivo Anticancer Drug Screen. Data for tumor model L1210 Leukemia (intraperitoneal) in B6D2F1 (BDF1) mice
Settings: endpoint: mean survival time, higher = longer survival
Summary of the method: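 In this screen, tumor-bearing mice given compound are compared to those given vehicle, and their survival values are reported as a treated-to-control quotient.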

[1] = dose: 25.0 mg/kg/injection, schedule: Q01DX009 (ip), vehicle: Klucel (hydroxypropylcellulose) (HPC)
[2] = dose: 25.0 mg/kg/injection, schedule: Q04DX003 (ip), vehicle: Klucel (hydroxypropylcellulose) (HPC)
[3] = dose: 50.0 mg/kg/injection, schedule: Q01DX009 (ip), vehicle: Klucel (hydroxypropylcellulose) (HPC)
[4] = dose: 100.0 mg/kg/injection, schedule: Q01DX009 (ip), vehicle: Klucel (hydroxypropylcellulose) (HPC)
[5] = dose: 100.0 mg/kg/injection, schedule: Q04DX003 (ip), vehicle: Klucel (hydroxypropylcellulose) (HPC)
[6] = dose: 200.0 mg/kg/injection, schedule: Q04DX003 (ip), vehicle: Klucel (hydroxypropylcellulose) (HPC)
[7] = dose: 400.0 mg/kg/injection, schedule: Q04DX003 (ip), vehicle: Klucel (hydroxypropylcellulose) (HPC)
[8] = dose: 100.0 mg/kg/injection, schedule: Q01DX001 (ip), vehicle: saline
[9] = dose: 200.0 mg/kg/injection, schedule: Q01DX001 (ip), vehicle: saline
[10] = dose: 400.0 mg/kg/injection, schedule: Q01DX001 (ip), vehicle: saline
[11] = dose: 100.0 mg/kg/injection, schedule: Q01DX001 (ip), vehicle: Klucel (hydroxypropylcellulose) (HPC)
[12] = dose: 200.0 mg/kg/injection, schedule: Q04DX003 (ip), vehicle: saline
[13] = dose: 400.0 mg/kg/injection, schedule: Q04DX003 (ip), vehicle: saline
[14] = dose: 100.0 mg/kg/injection, schedule: Q04DX003 (ip), vehicle: saline

SMILES: CNC(=S)N/N=C(\C)CSC/C(C)=N/NC(=S)NC
- T/C (dose: 1.56 mg/kg/injection, schedule: Q03HX024 (ip), vehicle: Klucel (hydroxypropylcellulose) (HPC)): 97 % of control
- T/C (dose: 3.12 mg/kg/injection, schedule: Q01DX009 (ip), vehicle: Klucel (hydroxypropylcellulose) (HPC)): 95 % of control
- T/C (dose: 3.12 mg/kg/injection, schedule: Q03HX024 (ip), vehicle: Klucel (hydroxypropylcellulose) (HPC)): 93 % of control
- T/C (dose: 6.25 mg/kg/injection, schedule: Q01DX009 (ip), vehicle: Klucel (hydroxypropylcellulose) (HPC)): 92 % of control
- T/C (dose: 6.25 mg/kg/injection, schedule: Q03HX024 (ip), vehicle: Klucel (hydroxypropylcellulose) (HPC)): 92 % of control
- T/C (dose: 6.25 mg/kg/injection, schedule: Q04DX003 (ip), vehicle: Klucel (hydroxypropylcellulose) (HPC)): 95 % of control
- T/C (dose: 12.5 mg/kg/injection, schedule: Q01DX009 (ip), vehicle: Klucel (hydroxypropylcellulose) (HPC)): 93 % of control
- T/C (dose: 12.5 mg/kg/injection, schedule: Q03HX024 (ip), vehicle: Klucel (hydroxypropylcellulose) (HPC)): 95 % of control
- T/C (dose: 12.5 mg/kg/injection, schedule: Q04DX003 (ip), vehicle: Klucel (hydroxypropylcellulose) (HPC)): 102 % of control
- T/C [1]: 109 % of control
- T/C (dose: 25.0 mg/kg/injection, schedule: Q03HX024 (ip), vehicle: Klucel (hydroxypropylcellulose) (HPC)): 103 % of control
- T/C [2]: 97 % of control
- T/C (dose: 30.0 mg/kg/injection, schedule: Q04DX003 (ip), vehicle: saline): 98 % of control
- T/C [3]: 104 % of control
- T/C (dose: 50.0 mg/kg/injection, schedule: Q03HX024 (ip), vehicle: Klucel (hydroxypropylcellulose) (HPC)): 106 % of control
- T/C (dose: 60.0 mg/kg/injection, schedule: Q04DX003 (ip), vehicle: saline): 98 % of control
- T/C [4]: 108 % of control
- T/C (dose: 100.0 mg/kg/injection, schedule: Q03HX024 (ip), vehicle: Klucel (hydroxypropylcellulose) (HPC)): 116 % of control
- T/C [5]: 92 % of control
- T/C (dose: 120.0 mg/kg/injection, schedule: Q04DX003 (ip), vehicle: saline): 101 % of control
- T/C (dose: 200.0 mg/kg/injection, schedule: Q01DX009 (ip), vehicle: Klucel (hydroxypropylcellulose) (HPC)): 96 % of control
- T/C [6]: 107 % of control
- T/C [7]: 98 % of control

SMILES: O=C(CCCC(=O)N/N=C/c1cccc(O)c1)N/N=C\c1cccc(O)c1
- T/C (dose: 50.0 mg/kg/injection, schedule: Q01DX001 (ip), vehicle: saline): 98 % of control
- T/C [8]: 104 % of control
- T/C [9]: 98 % of control
- T/C [10]: 92 % of control

SMILES: NC1C(=O)Nc2cc(O)c(C(=O)O)cc21 (centres undefined)
- T/C (dose: 100.0 mg/kg/injection, schedule: Q01DX001 (ip), vehicle: gum acacia): 100 % of control
- T/C (dose: 200.0 mg/kg/injection, schedule: Q01DX001 (ip), vehicle: gum acacia): 100 % of control
- T/C (dose: 400.0 mg/kg/injection, schedule: Q01DX001 (ip), vehicle: gum acacia): 97 % of control

SMILES: COc1ccc(C2Nc3cc(Cl)ccc3NC3=C2C(=O)CC(C)(C)C3)cc1 (centres undefined)
- T/C (dose: 100.0 mg/kg/injection, schedule: Q04DX002 (ip), vehicle: Klucel (hydroxypropylcellulose) (HPC)): 105 % of control
- T/C (dose: 200.0 mg/kg/injection, schedule: Q04DX002 (ip), vehicle: Klucel (hydroxypropylcellulose) (HPC)): 94 % of control
- T/C (dose: 400.0 mg/kg/injection, schedule: Q04DX002 (ip), vehicle: Klucel (hydroxypropylcellulose) (HPC)): 102 % of control

SMILES: CCC1=C(C)C(=O)C2CCCCC2C1=O (centres undefined)
- T/C [11]: 105 % of control
- T/C (dose: 100.0 mg/kg/injection, schedule: Q01DX009 (ip), vehicle: saline sonified): 95 % of control
- T/C (dose: 200.0 mg/kg/injection, schedule: Q01DX001 (ip), vehicle: Klucel (hydroxypropylcellulose) (HPC)): 111 % of control
- T/C (dose: 200.0 mg/kg/injection, schedule: Q01DX009 (ip), vehicle: saline sonified): 97 % of control
- T/C (dose: 400.0 mg/kg/injection, schedule: Q01DX001 (ip), vehicle: Klucel (hydroxypropylcellulose) (HPC)): 96 % of control
- T/C (dose: 400.0 mg/kg/injection, schedule: Q01DX009 (ip), vehicle: saline sonified): 92 % of control

SMILES: c1ccc2c(Nc3ccc(C4=NCCN4)cc3)nnc(Nc3ccc(C4=NCCN4)cc3)c2c1
- T/C (dose: 38.0 mg/kg/injection, schedule: Q01DX Z (ip), vehicle: carboxymethylcellulose (CMC)): 110 % of control
- T/C (dose: 62.5 mg/kg/injection, schedule: Q01DX Z (oral), vehicle: saline): 103 % of control
- T/C (dose: 63.0 mg/kg/injection, schedule: Q01DX Z (oral), vehicle: water): 95 % of control
- T/C (dose: 84.0 mg/kg/injection, schedule: Q01DX Z (ip), vehicle: carboxymethylcellulose (CMC)): 170 % of control
- T/C (dose: 125.0 mg/kg/injection, schedule: Q01DX Z (oral), vehicle: saline): 103 % of control
- T/C (dose: 125.0 mg/kg/injection, schedule: Q01DX Z (oral), vehicle: water): 87 % of control
- T/C (dose: 187.5 mg/kg/injection, schedule: Q01DX Z (ip), vehicle: carboxymethylcellulose (CMC)): 119 % of control
- T/C (dose: 250.0 mg/kg/injection, schedule: Q01DX Z (oral), vehicle: saline): 105 % of control
- T/C (dose: 500.0 mg/kg/injection, schedule: Q01DX Z (oral), vehicle: water): 87 % of control

SMILES: ClC1=C(Cl)C2(Cl)C3C4CCC(C4)C3C1(Cl)C2(Cl)Cl (centres undefined)
- T/C [12]: 121 % of control
- T/C [13]: 108 % of control

SMILES: O=C(NCCCl)C(Cl)(Cl)Cl
- T/C [5]: 98 % of control
- T/C [6]: 97 % of control
- T/C [7]: 106 % of control

SMILES: COc1cc2c(cc1OC)-c1c([O-])c3cc(OC)c(OC)cc3n[n+]1CC2
- T/C (dose: 75.0 mg/kg/injection, schedule: Q01DX001 (ip), vehicle: saline): 98 % of control
- T/C (dose: 150.0 mg/kg/injection, schedule: Q01DX001 (ip), vehicle: saline): 86 % of control
- T/C (dose: 300.0 mg/kg/injection, schedule: Q01DX001 (ip), vehicle: saline): 89 % of control

SMILES: Nc1nc(-c2ccccc2N=NN2CCOCC2)nc2ccccc12
- T/C [5]: 101 % of control
- T/C [6]: 103 % of control
- T/C [7]: 101 % of control

SMILES: COC(=O)C1CCCCC1NC(C)=O (centres undefined)
- T/C [8]: 102 % of control
- T/C [14]: 114 % of control
- T/C [9]: 110 % of control
- T/C [12]: 100 % of control
- T/C [10]: 103 % of control
- T/C [13]: 103 % of control

SMILES: COC(=O)C(Cc1ccc(O)cc1)NC(=O)C(CSCc1ccccc1)NC(=O)OCc1ccccc1 (centres undefined) (Cbz-Cys(Bn)-Tyr-OMe; configuration not given here)
- T/C (dose: 100.0 mg/kg/injection, schedule: Q04DX003 (ip), vehicle: DMSO): 94 % of control
- T/C (dose: 200.0 mg/kg/injection, schedule: Q04DX003 (ip), vehicle: DMSO): 98 % of control
- T/C (dose: 400.0 mg/kg/injection, schedule: Q04DX003 (ip), vehicle: DMSO): 91 % of control

SMILES: CC(C)(C)OC(=O)NC(Cc1cncn1Cc1ccccc1)C(=O)NC(Cc1c[nH]c2ccccc12)C(=O)OCc1ccccc1 (centres undefined)
- T/C [14]: 97 % of control
- T/C [12]: 93 % of control
- T/C [13]: 95 % of control

SMILES: COc1ccccc1/C=C1\SC(=S)NC1=O
- T/C (dose: 50.0 mg/kg/injection, schedule: Q01DX001 (ip), vehicle: carboxymethylcellulose (CMC)): 92 % of control
- T/C (dose: 100.0 mg/kg/injection, schedule: Q01DX001 (ip), vehicle: carboxymethylcellulose (CMC)): 101 % of control
- T/C (dose: 200.0 mg/kg/injection, schedule: Q01DX001 (ip), vehicle: carboxymethylcellulose (CMC)): 106 % of control
- T/C (dose: 400.0 mg/kg/injection, schedule: Q01DX001 (ip), vehicle: carboxymethylcellulose (CMC)): 90 % of control

SMILES: CC1=NCCc2cc3[nH]c4ccccc4c3cc21
- T/C [1]: 102 % of control
- T/C [2]: 99 % of control
- T/C [3]: 96 % of control
- T/C (dose: 50.0 mg/kg/injection, schedule: Q04DX003 (ip), vehicle: Klucel (hydroxypropylcellulose) (HPC)): 104 % of control
- T/C [11]: 94 % of control
- T/C [4]: 94 % of control
- T/C [5]: 100 % of control

SMILES: CC(=O)OCc1c[n+]([O-])c(C)c(OC(C)=O)c1COC(C)=O
- T/C (dose: 25.0 mg/kg/injection, schedule: Q04DX003 (ip), vehicle: saline): 101 % of control
- T/C (dose: 50.0 mg/kg/injection, schedule: Q04DX003 (ip), vehicle: saline): 101 % of control
